Measurements published in patent US20120230991A1, “METHODS AND COMPOUNDS FOR ENHANCING ANTI-CANCER THERAPY” (priority 2008, published 2012).
Each block holds one molecule with its values, some of them ahead of it.

How the values were obtained:
Assay type in all cases: cell-based
[1] = test system: A549 Human NSCLC Cell Lines; assay: Relative cell numbers of A549 cells (wild type, shControl, Axl/Mer knockdown) after 48 hours of drug; conditions: for IC50: 48 hours, relative cell number
[2] = test system: A549 Human NSCLC Cell Lines; assay: BrdU incorporation ELISA, relative cell proliferation of A549 cells, 48 hours; conditions: BrdU assay
Experimental: The relative cell proliferation was determined via a BrdU incorporation ELISA. IC50 values were determined by non-linear regression of data from at least three independent experiments performed in triplicate (see Table 3).

[3] = test system: REH cells; assay: Flow cytometry of apoptotic and dead cells (YO-PRO-1 / propidium iodide), REH cells; conditions: REH shMer4A, shMer4B vs shControl, 48 hours
Excerpt: Apoptotic and dead cells were identified by flow cytometric analysis of cells stained with YO-PRO®-1 and propidium iodide: A) representative flow cytometry profiles. The percentage of apoptotic cells is indicated in the lower-right quadrant. The combined percentage of cells in the two upper quadrants indicates the fraction of dead cells.
Apoptotic and dead cells were identified by flow cytometric analysis of cells stained with YO-PRO®-1 and propidium iodide: A) representative flow cytometry profiles. The percentage of apoptotic cells is indicated in the lower-right quadrant. The combined percentage of cells in the two upper quadrants indicates the fraction of dead cells. B) mean values and standard errors derived from 3 independent experiments. Results were tested for significance using two-way repeated measures ANOVA and Bonferroni posttests to compare shControl and Mer knockdown cells at equivalent drug concentrations. Significant differences in apoptotic cell populations are indicated by asterisks (* p<0.01, ** p<0.001). Significant differences in the number of dead cells were also observed († p<0.01, ‡‡ p<0.001). No significant differences between wild type and shControl cells were observed.

[4] = test system: 697 Human B-ALL Cell Lines; assay: MTT assay, chemosensitivity of 697 cells (wild type, shControl, Mer knockdown), 48 hours
Experimental: Inhibition of Mer expression results in increased chemosensitivity in 697 cells. […] IC50 values were determined by non-linear regression of data from at least three independent experiments performed in triplicate, as shown in Table 1.

[5] = test system: REH cells; assay: MTT assay, REH cells (wild type, shControl, Mer knockdown) treated with methotrexate for 48 hours; conditions: REH shMer4A, shMer4B vs shControl
Excerpt: Inhibition of Mer expression results in increased chemosensitivity of REH cells. […] Statistical differences versus shControl are indicated by non-overlapping confidence intervals (95% CI). No significant difference between wild type and shControl was observed.

[6] = test system: G12 astrocytoma cells; assay: MTT assay, chemosensitivity of G12 astrocytoma control and knockdown cells
Experimental: (§1) G12 control (shControl) and knockdown cells (shMer1 and shMer4; shAxl8 and shAxl9) were plated in 96-well plates at concentrations determined to allow linear growth over 3 days: A) cells were treated with varying concentrations of temozolomide and relative cell number was assessed 48 h after treatment by colorimetric assessment/MTT assay. Error bars denote experiments performed in triplicate. A172 control (shControl) and knockdown cells (shMer1A and shMer1B; shAxl8 and shAxl9) were plated in 96-well plates at concentrations determined to allow linear growth over 3 days: B) cells were treated with varying concentrations of carboplatin and relative cell number was assessed 48 h after treatment by colorimetric assessment/MTT assay. Error bars represent three independent experiments performed in triplicate.
(§2) Table 4 provides the IC50 with 95% CI for G12 and A172 control and Mer and Axl knockdown cells, in response to chemotherapy. In Table 4, ‘NR’ indicates an IC50 was never reached. ‘IND’ represents that that CI was indeterminate. The IC50 for each knockdown line was compared to the control line, and an ‘*’ represents that the comparison is statistically different while an ‘NS’ represents that there was no statistically significant difference because either the CI was indeterminate (as with the G12 shAxl9 line treated with carboplatin) or it overlapped with the shControl CI.

[7] = test system: A172 glioblastoma cells; assay: MTT assay, chemosensitivity of A172 control and knockdown cells; conditions: Homo sapiens
Experimental: as §1, §2

[8] = 697 shMer1A (Mer knockdown) cells
[9] = 697 shMer1B (Mer knockdown) cells

SMILES: N.N.[Cl][Pt][Cl] [Cispl, cisplatin]
IC50 ([1]; A549 Wild Type): 6480 nM
IC50 ([1]; A549 shAxl8-G5 (Axl knockdown)): 510 nM
IC50 ([1]; A549 shAxl9-D3 (Axl knockdown)): 3400 nM
sensitivity of the shAxl9-D3 Axl knockdown clone ([1]; A549 shAxl9-D3, 48 hours): more sensitive
IC50 ([1]; A549 shControl): 8560 nM
IC50 ([1]; A549 shMer1-G8 (Mer knockdown)): 3000 nM
IC50 ([2]; A549 Wild Type, 48 hours): 2100 nM
IC50 ([2]; A549 shAxl8-G5, 48 hours): 2700 nM
IC50 ([2]; A549 shAxl9-D3, 48 hours): 2300 nM
IC50 ([2]; A549 shControl, 48 hours): 1700 nM
IC50 ([2]; A549 shMer1-G8, 48 hours): 1000 nM

SMILES: CN(Cc1cnc2nc(N)nc(N)c2n1)c1ccc(C(=O)N[C@@H](CCC(=O)O)C(=O)O)cc1 [MTX, methotrexate]
apoptotic cell death with Mer knockdown [3]: increased apoptotic cell death
IC50 ([4]; 697 Wild Type cells): 27.5 nM
IC50 ([4]; 697 shControl cells): 27.8 nM
IC50 [4, 8]: 12.3 nM
IC50 [4, 9]: 11.8 nM
IC50 values in Mer knockdown cells in comparison to shControl cells [5]: significantly lower IC50 values

IC50 ([6]; 48 h, G12 shAxl8, 48 h, MTT): 6900 nM
IC50 ([6]; 48 h, G12 shAxl9, 48 h, MTT): 1800 nM
IC50 ([6]; 48 h, G12 shControl, MTT): 68600 nM
IC50 ([6]; 48 h, G12 shMer1, 48 h, MTT): 18200 nM
IC50 ([6]; 48 h, G12 shMer4, 48 h, MTT): 1000 nM
IC50 ([7]; A 172, 48 h, A172 shAxl8, 48 h, MTT): 27600 nM
IC50 ([7]; A 172, 48 h, A172 shAxl9, 48 h, MTT): 38900 nM
IC50 ([7]; A 172, 48 h, A172 shControl, 48 h, MTT): 51400 nM
IC50 ([7]; A 172, 48 h, A172 shMer1A, 48 h, MTT): 21300 nM
IC50 ([7]; A 172, 48 h, A172 shMer1B, 48 h, MTT): 7700 nM
SMILES: Cn1nnc2c(C(N)=O)ncn2c1=O [Temozolomide, temozolomide]

IC50 ([6]; G12 shAxl8, MTT): 0.31 nM
IC50 ([6]; G12 shAxl9, MTT): 0.2 nM
IC50 ([6]; G12 shControl, MTT): 1.64 nM
IC50 ([6]; G12 shMer1, MTT): 0.74 nM
IC50 ([6]; G12 shMer4, MTT): 0.22 nM
IC50 ([7]; A 172, A172 shAxl8, MTT): 0.68 nM
IC50 ([7]; A 172, A172 shAxl9, MTT): 2.92 nM
IC50 ([7]; A 172, A172 shControl, MTT): 2.54 nM
IC50 ([7]; A 172, A172 shMer1A, MTT): 1.25 nM
IC50 ([7]; A 172, A172 shMer1B, MTT): 0.54 nM
SMILES: CC[C@]1(O)C[C@H]2CN(CCc3c([nH]c4ccccc34)[C@@](C(=O)OC)(c3cc4c(cc3OC)N(C=O)[C@H]3[C@@](O)(C(=O)OC)[C@H](OC(C)=O)[C@]5(CC)C=CCN6CC[C@]43[C@@H]65)C2)C1 [VCR, vincristine]
IC50 ([4]; 697 Wild Type cells): 1.04 nM
IC50 ([4]; 697 shControl cells): 1.02 nM
IC50 [4, 8]: 0.54 nM
IC50 [4, 9]: 0.46 nM
